The results in this text go back to US7029915B2, “Method for differentiating rat hepatic stem cells to insulin-producing cells” (University of Florida Research Foundation, Inc., priority 2002, dated 2006).

The test system of assay [1] is trans-differentiated hepatic stem cells. Briefly: Insulin content and secretion by immunoprecipitation and Western blotting. The format is cell-based, rat. As to the method: Measurement of insulin content and secretion by immunoprecipitation and Western blotting. Confluent cultures of trans-differentiated hepatic stem cells were maintained in RPMI 1640 plus 10% fetal calf serum in the presence or absence of 10 mM nicotinamide for 7 days. The cells were then switched to serum-free medium containing 0.5% BSA for 5 hrs, washed twice with serum-free medium, then stimulated with an additional 17.5 mM glucose for 2 hrs. The culture medium was collected and stored at −70° C. for assay of secreted insulin. Intracellular insulin was extracted with lysis buffer. The presence of insulin in the culture media and cell lysates was determined by immunoprecipitation with anti-rabbit-insulin polyclonal antibodies (Santa Cruz Biotechnology), followed by separation of the precipitated material by 18% SDS-PAGE, transfer to nylon membrane, and blotting with anti-insulin antibodies as described (Yang, et al., J. Biol. Chem. 269:7156–7162, 1994). Cell lysates (150 μg) or culture media (1 ml) from each culture were used for the immunoprecipitation. Normal rabbit serum was used as primary antibody control, and culture medium containing 0.5% BSA was used as a control for secreted insulin measurements. […] Insulin content in cells and in the media was determined by pooling cell lysates and culture medium from three separate cultures.
(A western blot detects proteins with antibodies after separation by electrophoresis.)

A further assay deals with hepatic stem cells. Briefly: Morphology of spheroid cell clusters in high-glucose hepatic stem cell cultures. The following applies: five to seven days in 10 mM nicotinamide, high glucose (23 mM) culture. The format is cell-based, rat. As to the method:
To induce trans-differentiation, the cells were replated and cultured in RPMI 1640 medium supplemented with 10% FCS and 17.5 mM (23 mM final concentration) glucose. After about two months, scattered small spheroid cell clusters began to form on top of the confluent cell monolayer. Individual spheroids from these cell cultures were selected for clonal passage and were subjected several times to the high glucose (23 mM) culturing process described above. The resultant cells reached confluence, and by day 14 formed additional clusters when maintained under the high glucose conditions. […] Multiple clusters also became connected by duct-like structures.

SMILES strings stand for the structures.

Take `NC(=O)c1cccnc1` [nicotinamide]: the “increase of insulin in cell lysates versus untreated cells (densitometric analysis)” value in assay [1] (10 mM nicotinamide for 7 days before stimulation with additional 17.5 mM glucose for 2 hrs, cell lysates) turned out to be 3.4 times. Also, the “levels of insulin detected in cell lysates and secreted into culture medium” value in assay [1] (growth in nicotinamide before glucose stimulation, Western blot, FIG. 2) is “increased”. Also, the “number and dimension of spheroid cell clusters” value in the assay with hepatic stem cells is “markedly increased”.
